# Experimental data taken from publication PMC5423977, “Safety, pharmacokinetics, and pharmacodynamics of BMS-986142, a novel reversible BTK inhibitor, in healthy participants” (European Journal of Clinical Pharmacology, 2017).
# Read-outs that look alike come from different tables or passages of the source.
# Key:
# [1] = Stability of methotrexate and 7-hydroxymethotrexate in human sodium heparin plasma and processed samples (bioanalytical validation); type: physicochemical
# Description: Method validation was carried out according to the Bristol-Myers Squibb Standard Operating Procedures (SOPs) for chromatographic method validation which conforms to the U.S. FDA’s Good Laboratory Practice (GLP) regulations (21 CFR part 58). The validation experiments included but were not limited to the determination of the lower limit of quantification (LLOQ), specificity, accuracy and precision, recovery, and analyte stability under the expected conditions of sample transfer, sample storage, and sample preparation. The LLOQ of the assay was determined to be 1 ng/mL using six different lots of plasma. No interference from the endogenous components and the internal standard was observed.
# The accuracy and precision data for BMS-986142, based on the maximum value from all six QC levels, obtained using one-way ANOVA in Watson are listed in Table 1. The recovery of the analyte from human plasma during extraction was determined at 3 ng/mL and 800 ng/mL for BMS-986142, at 3 ng/mL, 30 ng/mL and 750 ng/mL for methotrexate and 7-hydroxymethotrexate, by comparing the response ratios in human plasma samples spiked with the analyte prior to extraction with those spiked post-extraction. The recovery for BMS-986142 is 89-90%. The recoveries for methotrexate and 7-hydroxymethotrexate are 88-94% and 83-88%, respectively. The room temperature, freeze-thaw, and frozen storage stability of BMS-986142 were evaluated in triplicate or quadruplicate using Low QC, High QC, and Dilution QC. The reinjection integrity was assessed by re-injecting an entire run. The deviations of the mean predicted concentrations of the test samples from the nominal concentrations were used as an indicator of the stability of the analyte.
# [2] = system: animal models of arthritis; design: method as in PMID 21752263, PMID 21521773; settings: cited from earlier work
# [3] = system: rat adjuvant-induced arthritis model; design: method as in PMID 22228807; settings: alone or in combination with MTX; cited from earlier work
# [4] = Effect of BMS-986142 on single-dose plasma PK of MTX (DDI); type: in vivo, human; settings: for AUC(0-inf): read-out: AUC(inf), geometric mean (adjusted); for Cmax: read-out: Cmax, geometric mean (adjusted)
# Description: Blood samples for the measurement of BMS-986142 were collected up to 168 h after dosing of BMS-986142 on day 1 for participants in SAD. In MAD, blood samples were collected up to 24 h on day 1 and up to 120 h on day 14 (the last day of treatment). Blood samples for the measurement of MTX were collected up to 48 h after dosing of MTX on days 1 and 8.
# Plasma samples were analyzed for BMS-986142 levels with a validated method using liquid chromatography tandem mass spectrometry (LC-MS/MS) detection. The analyte was extracted from 50 μL of plasma using a liquid–liquid extraction method. Methyl tert-butyl ether was used as the extraction solvent. The lower limit of quantification (LLOQ) was 1.00 ng/mL in plasma. Plasma samples were analyzed for methotrexate levels using LC-MS/MS detection. Analytes were isolated from 50 μL plasma through solid phase extraction using Waters Oasis MAX, 10-mg, 96-well SPE plates. The final extract was analyzed using LC-MS/MS detection. LLOQ was 1.00 ng/mL in plasma. Detailed methodology quantitating the concentration level of BMS-986142 and MTX is provided in Online Resource 10.
# Individual subject pharmacokinetic parameters for BMS-986142 and MTX were derived by a non-compartmental method using validated PK software (WinNonLin version 6.3; Pharsight Corporation, Mountain View, CA, USA). The following PK parameters for BMS-986142 and MTX were derived from plasma concentration versus time data: maximum observed plasma concentration (Cmax); minimum observed plasma concentration (Cmin); time to maximum observed plasma concentration (Tmax); area under the plasma concentration-time curve from time zero to the time of the last quantifiable concentration (AUC(0-T)), from time zero extrapolated to infinite time (AUC(inf)), and in one dosing interval (AUC(TAU)); terminal plasma half-life (T1/2); and AUC accumulation index (AI_AUC). AI_AUC was calculated to divide AUC(TAU) on day 14 by AUC(TAU) on day 1.
# Statistical analyses were conducted to assess the effect of coadministration of BMS-986142 on the PK of MTX. For all treatment comparisons, a linear mixed-effect model was fitted to the log-transformed PK parameters Cmax, AUC(0-T), and AUC(inf). Point estimates and 90% CIs for differences on the log-scale were exponentiated to obtain estimates for geometric mean ratios (GMRs) and respective 90% CIs on the original scale. Sample size determination is based on consideration of the precision of the estimate of the GMRs of AUCs of MTX with and without BMS-986142. With 9 evaluable subjects, there will be an 80% probability that the 90% CI of AUC(INF) GMR will be within 89.9 to 111.2% of the point estimate. These precision estimates are based on an assumption that Cmax and AUC(INF) of MTX are log-normally distributed with intrasubject CV of 14.67 and 10.38%, respectively, as calculated from Namour et al..
# [5] = Safety (adverse events), Study 2 MTX-DDI in healthy male participants
# Description: This portion of the study was designed to assess the effect of BMS-986142 on the PK of MTX since MTX is used as a background therapy in RA patients and all patients will receive MTX when the phase 2 study of BMS-986142 is conducted. Eligible participants were confined to the clinical facility for the duration of treatment (15 days). Healthy participants were administered a single oral dose of 7.5 mg MTX on day 1. On day 2, participants received leucovorin (a single oral dose of 15 mg) as a preventive measure for MTX toxicity. After a washout period (days 2–5), BMS-986142 was administered on days 6–10 in 350-mg QD doses. A concomitant dose of MTX (7.5 mg) was administered on day 8, followed by leucovorin (15 mg) on day 9 (Online Resource 2). BMS-986142 was administered with 240 mL of water, and a minimum amount of additional water was permitted to allow dosing of all medications. Only healthy male participants (ages ≥18 to ≤50 years) were eligible for the MTX-DDI assessment in study 2. Other key inclusion and exclusion criteria were identical to those in study 1.
# Participants were monitored for adverse events (AEs) throughout the study. Clinical laboratory tests, vital sign measurements, 12-lead ECGs, and physical examinations were performed at selected times throughout the dosing interval. Safety data was recorded in the participants’ medical records, and assessments were performed for emergent AEs or serious AEs (SAEs). For all AEs, causal relationship to the study drug was determined by an investigator.
# [6] = 7-hydroxymethotrexate, 24 hours at RT in Plasma, High QC 750
# [7] = 7-hydroxymethotrexate, 24 hours at RT in Plasma, Low QC 3.00
# [8] = 7-hydroxymethotrexate, 142 h Processed sample stability, High QC 750
# [9] = 7-hydroxymethotrexate, 142 h Processed sample stability, Low QC 3.00
# [10] = 7-hydroxymethotrexate, 6 days at 5 °C Re-injection integrity, High QC 750
# [11] = 7-hydroxymethotrexate, 6 days at 5 °C Re-injection integrity, Low QC 3.00
# [12] = 7-hydroxymethotrexate, 449 day at -20 °C in Plasma, High QC 750
# [13] = 7-hydroxymethotrexate, 449 day at -20 °C in Plasma, Low QC 3.00
# [14] = 7-hydroxymethotrexate, After 4 Freeze-Thaw Cycle in Plasma, High QC 750
# [15] = 7-hydroxymethotrexate, After 4 Freeze-Thaw Cycle in Plasma, Low QC 3.00
# [16] = male, human, plasma, oral, Treatment D: single-dose methotrexate 7.5 mg (day 1) + leucovorin 15 mg (day 2)
# [17] = male, human, plasma, oral, Treatment F: BMS-986142 350 mg QD + single-dose methotrexate 7.5 mg (day 8) + leucovorin 15 mg (day 9)
# [18] = methotrexate with BMS-986142 350 mg QD vs methotrexate alone
# [19] = methotrexate, 24 hours at RT in Plasma, High QC 750
# [20] = methotrexate, 24 hours at RT in Plasma, Low QC 3.00
# [21] = methotrexate, 142 h Processed sample stability, High QC 750
# [22] = methotrexate, 142 h Processed sample stability, Low QC 3.00
# [23] = methotrexate, 6 days at 5 °C Re-injection integrity, High QC 750
# [24] = methotrexate, 6 days at 5 °C Re-injection integrity, Low QC 3.00
# [25] = methotrexate, 449 day at -20 °C in Plasma, High QC 750
# [26] = methotrexate, 449 day at -20 °C in Plasma, Low QC 3.00
# [27] = methotrexate, After 4 Freeze-Thaw Cycle in Plasma, High QC 750
# [28] = methotrexate, After 4 Freeze-Thaw Cycle in Plasma, Low QC 3.00
# [29] = MTX 7.5 mg (Day 1) + leucovorin 15 mg (Day 2), n = 12
compound,measurement,setting,value
CN(Cc1nc2c(N)nc(N)nc2[nH]c1=O)c1ccc(C(=O)N[C@@H](CCC(=O)O)C(=O)O)cc1 [7-hydroxymethotrexate],"Stability, %Dev",[1]; [6],-0.3%
same,"Stability, Mean Conc.",[1]; [6],747 ng/mL
same,"Stability, %Dev",[1]; [7],9.2%
same,"Stability, Mean Conc.",[1]; [7],3.28 ng/mL
same,"Stability, %Dev",[1]; [8],-8.1%
same,"Stability, Mean Conc.",[1]; [8],689 ng/mL
same,"Stability, %Dev",[1]; [9],-8.7%
same,"Stability, Mean Conc.",[1]; [9],2.74 ng/mL
same,"Stability, %Dev",[1]; [10],0.4%
same,"Stability, Mean Conc.",[1]; [10],753 ng/mL
same,"Stability, %Dev",[1]; [11],5.7%
same,"Stability, Mean Conc.",[1]; [11],3.17 ng/mL
same,"Stability, %Dev",[1]; [12],-0.3%
same,"Stability, Mean Conc.",[1]; [12],747 ng/mL
same,"Stability, %Dev",[1]; [13],-10.4%
same,"Stability, Mean Conc.",[1]; [13],2.69 ng/mL
same,"Stability, %Dev",[1]; [14],0.2%
same,"Stability, Mean Conc.",[1]; [14],751 ng/mL
same,"Stability, %Dev",[1]; [15],1.4%
same,"Stability, Mean Conc.",[1]; [15],3.04 ng/mL
Cc1c(NC(=O)c2cc3c(s2)CCCC3)cccc1-c1cn(C)c(=O)c(Nc2ccc([C@@H]3C(=O)N(C)CCN3C)cc2)n1 [GDC-0834],Efficacy in animal models of arthritis,[2],Dose-dependent efficacy
C=CC(=O)N1CCC[C@@H](n2nc(-c3ccc(Oc4ccccc4)cc3)c3c(N)ncnc32)C1 [PCI-32765],Efficacy in animal models of arthritis,[2],Dose-dependent efficacy
CN1CCN(c2ccc(Nc3cc(-c4cccc(-n5ccc6cc(C7CC7)cc(F)c6c5=O)c4CO)cn(C)c3=O)nc2)CC1 [RN486],Efficacy on joint and systemic inflammation,[3],efficacious in reducing joint and systemic inflammation
"CN(Cc1cnc2nc(N)nc(N)c2n1)c1ccc(C(=O)N[C@@H](CCC(=O)O)C(=O)O)cc1 [methotrexate, reference compound]","AUC(0-T), geometric mean (adjusted)",[4]; Treatment D: single-dose methotrexate 7.5 mg (day 1) + leucovorin 15 mg (day 2),613 ng·h/mL
same,AUC(0-inf),[4]; [16],625 ng·h/mL
same,Cmax,[4]; [16],178 ng/mL
same,AUC(0-t),"[4]; male, human, plasma, oral, Treatment F: BMS-986142 350 mg QD + single-dose methotrexate 7.5 mg (day 8) + leucovorin 15 mg (day 9), read-out: AUC(0-T), geometric mean (adjusted)",638 ng·h/mL
same,AUC(0-inf),[4]; [17],654 ng·h/mL
same,Cmax,[4]; [17],186 ng/mL
same,"AUC(0-T), adjusted geometric mean ratio F vs D",[4]; [18],1.041
same,"AUC(inf), adjusted geometric mean ratio F vs D",[4]; [18],1.045
same,"Cmax, adjusted geometric mean ratio F vs D",[4]; [18],1.046
same,"Stability, %Dev",[1]; [19],0.2%
same,"Stability, Mean Conc.",[1]; [19],751 ng/mL
same,"Stability, %Dev",[1]; [20],-0.1%
same,"Stability, Mean Conc.",[1]; [20],3.00 ng/mL
same,"Stability, %Dev",[1]; [21],-13.1%
same,"Stability, Mean Conc.",[1]; [21],652 ng/mL
same,"Stability, %Dev",[1]; [22],-9.2%
same,"Stability, Mean Conc.",[1]; [22],2.72 ng/mL
same,"Stability, %Dev",[1]; [23],-2.2%
same,"Stability, Mean Conc.",[1]; [23],734 ng/mL
same,"Stability, %Dev",[1]; [24],3.4%
same,"Stability, Mean Conc.",[1]; [24],3.10 ng/mL
same,"Stability, %Dev",[1]; [25],0.6%
same,"Stability, Mean Conc.",[1]; [25],755 ng/mL
same,"Stability, %Dev",[1]; [26],-9.9%
same,"Stability, Mean Conc.",[1]; [26],2.70 ng/mL
same,"Stability, %Dev",[1]; [27],-2.1%
same,"Stability, Mean Conc.",[1]; [27],734 ng/mL
same,"Stability, %Dev",[1]; [28],3.7%
same,"Stability, Mean Conc.",[1]; [28],3.11 ng/mL
same,AE SOC: Gastrointestinal Disorders,[5]; [29],0 n (%)
same,AE SOC: General disorders and administration site conditions,[5]; [29],1 (8.3) n (%)
same,AE SOC: Infections and infestations,[5]; [29],0 n (%)
same,"AE SOC: Injury, poisoning and procedural complications",[5]; [29],0 n (%)
same,AE SOC: Nervous system disorders,[5]; [29],1 (8.3) n (%)
same,AE SOC: Psychiatric disorders,[5]; [29],0 n (%)
same,AE: Anxiety,[5]; [29],0 n (%)
same,AE: Arthropod Bite,[5]; [29],0 n (%)
same,AE: Asthenia,[5]; [29],1 (8.3) n (%)
same,AE: Dizziness,[5]; [29],1 (8.3) n (%)
same,AE: Fatigue,[5]; [29],0 n (%)
same,AE: Headache,[5]; [29],0 n (%)
same,AE: Nausea,[5]; [29],0 n (%)
same,AE: Sleep Disorder,[5]; [29],0 n (%)
same,AE: Tremor,[5]; [29],1 (8.3) n (%)
same,Total participants with an event,[5]; [29],1 (8.3) n (%)
same,Number of AEs reported,"[5]; Study 2, single-dose MTX on day 1",Three
